Assay results reported in PubChem BioAssay (NCI).
Values joined by “and” are separate entries in the source; they are usually repeats but may differ in a detail not shown here. Equal entries are not always repeated.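 How tested: cells in 96-well plates exposed to compound for 48 hours at five concentrations. Abbreviation: GI50, concentration required for 50% inhibition of growth. At the TGI there is no net growth.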

Assays:
Experiment in all cases: NCI tumour cell line growth inhibition, 48 h
U251 CNS = test system: U251 CNS
SK-MEL-2 melanoma = test system: SK-MEL-2 melanoma
SNB-19 CNS = test system: SNB-19 CNS
UO-31 renal = test system: UO-31 renal
M14 melanoma = test system: M14 melanoma
UACC-257 melanoma = test system: UACC-257 melanoma
HOP-62 NSCLC = test system: HOP-62 NSCLC
HOP-92 NSCLC = test system: HOP-92 NSCLC
SR leukemia = test system: SR leukemia
SNB-78 CNS = test system: SNB-78 CNS
COLO 205 colon = test system: COLO 205 colon
A498 renal = test system: A498 renal
NCI-H226 lung = test system: NCI-H226 lung
MDA-MB-231 breast = test system: MDA-MB-231 breast
HS 578T breast = test system: HS 578T breast
KM12 colon = test system: KM12 colon
DLD-1 colon = test system: DLD-1 colon
DMS 273 small cell lung = test system: DMS 273 small cell lung
OVCAR-3 ovarian = test system: OVCAR-3 ovarian
KM20L2 colon = test system: KM20L2 colon
SNB-75 CNS = test system: SNB-75 CNS
HCT-15 colon = test system: HCT-15 colon
RPMI-8226 leukemia = test system: RPMI-8226 leukemia
LOX IMVI melanoma = test system: LOX IMVI melanoma
OVCAR-4 ovarian = test system: OVCAR-4 ovarian
DMS 114 small cell lung = test system: DMS 114 small cell lung
SK-MEL-28 melanoma = test system: SK-MEL-28 melanoma
IGROV1 ovarian = test system: IGROV1 ovarian
A549 NSCLC = test system: A549 NSCLC
PC-3 prostate = test system: PC-3 prostate
SW-620 colon = test system: SW-620 colon
SF-539 CNS = test system: SF-539 CNS
NCI/ADR-RES ovarian = test system: NCI/ADR-RES ovarian
DU-145 prostate = test system: DU-145 prostate
K-562 leukemia = test system: K-562 leukemia
HCC-2998 colon = test system: HCC-2998 colon
MCF7 breast = test system: MCF7 breast
HT29 colon = test system: HT29 colon
MDA-N = test system: MDA-N
NCI-H460 lung = test system: NCI-H460 lung
T-47D breast = test system: T-47D breast
CAKI-1 renal = test system: CAKI-1 renal
786-0 renal = test system: 786-0 renal
EKVX NSCLC = test system: EKVX NSCLC
SN12C renal = test system: SN12C renal
BT-549 breast = test system: BT-549 breast
P388/ADR leukemia = test system: P388/ADR leukemia
SK-OV-3 ovarian = test system: SK-OV-3 ovarian
UACC-62 melanoma = test system: UACC-62 melanoma
NCI-H522 lung = test system: NCI-H522 lung
OVCAR-5 ovarian = test system: OVCAR-5 ovarian
ACHN renal = test system: ACHN renal

## CCCCCCCCCCCC[C@@H](O)[C@H]1CC[C@H]([C@H](O)CCCC[C@H](O)CCCCC[C@@H](O)CC2=C[C@H](C)OC2=O)O1
U251 CNS
  GI50: 3.31 µM
  TGI: 11.6 µM
SK-MEL-2 melanoma
  GI50: 1.3 µM
  TGI: 2.6 µM and 1.68 µM
SNB-19 CNS
  GI50: 2.32 µM
  TGI: 5.45 µM and 11.4 µM
UO-31 renal
  GI50: 1.3 µM
  TGI: 5.11 µM and 7.51 µM
M14 melanoma
  TGI: 5.25 µM and 10.4 µM
UACC-257 melanoma
  GI50: 0.0724 µM
  TGI: 5.68 µM and 3.36 µM
HOP-62 NSCLC
  GI50: 3.98 µM
  TGI: 5.41 µM and 10.6 µM
HOP-92 NSCLC
  TGI: 6.23 µM and 9.94 µM
SR leukemia
  GI50: 1.11 µM
  TGI: 3.87 µM
SNB-78 CNS
  TGI: 15.2 µM
COLO 205 colon
  GI50: 3.47 µM
  TGI: 3.52 µM
A498 renal
  GI50: 5.27 µM
  TGI: 9.41 µM and 13.6 µM
NCI-H226 lung
  GI50: 1.53 µM
  TGI: 3.54 µM and 18.2 µM
MDA-MB-231 breast
  GI50: 2.86 µM
  TGI: 7.56 µM and 10.6 µM
HS 578T breast
  GI50: 4.22 µM
  TGI: 7.06 µM and 22.1 µM
KM12 colon
  GI50: 1.98 µM
  TGI: 5.17 µM and 12.3 µM
DLD-1 colon
  TGI: 11.5 µM
DMS 273 small cell lung
  TGI: 5.55 µM
OVCAR-3 ovarian
  GI50: 1.41 µM and 1.56 µM
  TGI: 2.71 µM and 4.05 µM
KM20L2 colon
  TGI: 8.96 µM
SNB-75 CNS
  GI50: 4.02 µM
  TGI: 7.77 µM and 10.3 µM
HCT-15 colon
  GI50: 2.83 µM
  TGI: 5.8 µM and 9.73 µM
RPMI-8226 leukemia
  GI50: 1.56 µM and 0.888 µM
  TGI: 7.92 µM and 7.46 µM
LOX IMVI melanoma
  GI50: 0.809 µM
  TGI: 4.92 µM and 4.19 µM
OVCAR-4 ovarian
  TGI: 10.6 µM
DMS 114 small cell lung
  TGI: 0.371 µM
SK-MEL-28 melanoma
  GI50: 3.77 µM
  TGI: 6.19 µM and 9.93 µM
IGROV1 ovarian
  GI50: 3.58 µM
  TGI: 6.05 µM and 8.67 µM
A549 NSCLC
  GI50: 1.71 µM
  TGI: 8.37 µM and 11.3 µM
PC-3 prostate
  GI50: 2.43 µM
  TGI: 5.16 µM and 12.3 µM
SW-620 colon
  TGI: 6.58 µM and 12.9 µM
SF-539 CNS
  GI50: 4.18 µM
  TGI: 5.59 µM and 11.2 µM
NCI/ADR-RES ovarian
  TGI: 5.42 µM and 11.2 µM
DU-145 prostate
  GI50: 7.93 µM
  TGI: 21.3 µM
K-562 leukemia
  GI50: 0.302 µM
  TGI: 7.06 µM
HCC-2998 colon
  TGI: 10.6 µM
MCF7 breast
  TGI: 5.13 µM and 6.79 µM
HT29 colon
  TGI: 5.64 µM and 8.54 µM
MDA-N
  TGI: 7.63 µM and 15.4 µM
NCI-H460 lung
  GI50: 2.4 µM
  TGI: 5.16 µM and 11.7 µM
T-47D breast
  GI50: 1.74 µM
  TGI: 14.1 µM
CAKI-1 renal
  GI50: 5.39 µM
  TGI: 10.5 µM
786-0 renal
  TGI: 6.42 µM and 8.45 µM
EKVX NSCLC
  GI50: 2.17 µM
  TGI: 6.88 µM and 12.5 µM
SN12C renal
  TGI: 7.66 µM and 15.6 µM
BT-549 breast
  TGI: 24 µM
P388/ADR leukemia
  TGI: 7.53 µM
SK-OV-3 ovarian
  TGI: 11.4 µM
UACC-62 melanoma
  TGI: 5.14 µM and 6.06 µM
NCI-H522 lung
  TGI: 4.45 µM
OVCAR-5 ovarian
  GI50: 1.59 µM and 5.77 µM
  TGI: 3.05 µM and 17.9 µM
ACHN renal
  GI50: 2.74 µM
  TGI: 6.53 µM and 14.9 µM
